Assay results from US7271239B2, “D-isomers of antimicrobial peptide” (The Research Foundation of State University of New York, priority 2004, dated 2007).
Read-outs that look alike come from different tables or passages of the source. Where a SMILES comes first, the peptide text is derived from it. Where no end group is shown, it is not given here. [ ]: non-standard residue; d: D form.

Assays:
S. mutans GS-5 biofilm = format: cell-based, Streptococcus mutans
Experimental: FIG. 11. Effect of peptides on the biofilm formation of S. mutans. The bacterial cells (5×10^5 cfu ml^−1) were inoculated in 96-well microtiter plate containing 25% BHIS medium with different concentration of each agent. Culture without agent was used as no treatment control. After incubation at 37° C. for 24 h, absorbance at 595 nm was recorded to assess the cell growth. Biofilm assay was performed by discarding the supernatants, washing with PBS, fixing with methanol, and staining with CV. The absorbance at 570 nm was recorded to assess the amount of biofilm. The activity was expressed as % of control. Data represents mean and SD of two independent tests with duplicates for each. Empty bar: growth, solid bar: biofilm.
The effect of the peptides on S. mutans in biofilm formation was examined by the microdilution method. This method is similar to the MIC assay for planktonic cells. Two-fold serial dilutions of each peptide were prepared in wells of polystyrene microtiter plates (Microtest tissue culture plate, 96 well, Falcon, Becton Dickinson and Company, N.J.) containing 25% BHI medium supplemented with 1% sucrose (BHIS) at a volume of 200 μl per well. The final concentration of the peptide ranged from 0.78 to 100 μM for each peptide. Chlorhexidine (CHX, 0.078 to 10 μg/mL) was used as the positive control, the medium without drug as the non-treated control, and the medium alone as the blank control. The cells suspension of S. mutans GS-5 was prepared as describe in MIC assay and 20 μl aliquot (final concentration of cells 5×10^5 CFU/mL) was inoculated to the wells of polystyrene microtiter plates. After incubation at 37° C. for 20 h, the culture supernatants from each well were decanted and planktonic cells were removed by washing with PBS, pH 7.2. The biofilm was fixed with methanol for 15 min and then air dried at room temperature. The biofilm was then stained with 0.1% (wt/vol) crystal violet (Sigma) for 5 min. and rinsed thoroughly with water until the control wells appeared colorless. Biofilm formation was quantified by the addition of 200 μl of 95% ethanol to each crystal violet-stained well. The plate was rocked at room temperature for 30 min and the absorbance at 595 nm (A595 nm) was determined with a microplate reader (BioRad Model 3550 Microplate Reader). Percentage of inhibition was calculated with the equation: (1−A595 nm of the test/A595nm of non-treated control)×100.

[1] = tested on: S. mutans GS-5 1-day biofilm; format: cell-based, Streptococcus mutans
Experimental: FIG. 12. Effect of peptides on 1-day biofilm of S. mutans. One-day mature biofilm was prepared as described above. BHI medium supplemented with 1% sucrose (BHIS) with peptides, prepared in another microtiter plate, was then transferred to the biofilm plate. After further incubation at 37° C. for 24 h, the biofilm was fixed, stained, and quantified as describe above. Data represents mean and SD of two independent tests performed in duplicated. Empty bar: growth, solid bar: biofilm.
To examine the effects of the peptides on 1-day mature biofilm, S. mutans GS-5 was inoculated into the wells of another polystyrene microtiter plate containing BHIS at a volume of 200 μl per well. After incubation at 37° C. for 24 h, the culture supernatants from each well were decanted and planktonic cells were removed by washing with PBS. BHIS containing 0.78 to 100 μM peptides, prepared in another microtiter plate, was then transferred to the 1-day biofilm plate, and further incubated at 37° C. for one day. The biofilm was fixed, stained, and quantified as describe above.

Candida strains = format: cell-based
Text: (§1) Killing assays in saliva. […] Saliva without peptides was a blank control.
(§2) Activity of peptides in saliva against different candida strains. The in vitro candidacidal activities of MUC7 12-mer-L and D, Hsn5 12-mer, and Magainin-II against four Candida strains in clarified saliva are shown in Table 1. The data are presented as percent loss of cell viability compared to non-treated control. The following observations were made. […] In the presence of PIC, the activity values of MUC7 12-mer-L and of Magainin-II rose close to a 100% for all strains, but not that of Hsn5 peptide, which achieved the similar activity only against the C. albicans (ATCC strain). The activities against the other strains were much lower, in particular against both strains of C. glabrata (30-40%). […] This was true especially in saliva without PIC.

S. mutans GS-5 = assay: Time-kill assay; format: cell-based, Streptococcus mutans; conditions: after 4 h incubation, each agent at its MIC
Experimental: FIG. 10. Time-Killing curves for S. mutans. […] Control (▪), MUC7 12-mer-L (Δ), MUC7 12-mer-D (□), MUC7 20-mer (▴), Hsn5 12-mer (×), magainin II (●), chlorhexidine (◯).
For the peptides MUC7 12-mer-L, MUC7 12-mer-D, and MUC7 20-mer, time-kill kinetic studies against S. mutans were performed by the broth macrodilution method. S. mutans GS-5 (1×10^6 CFU/ml) and antibacterial agens (find concentrations of 12.5 μM for each peptide, and 2 μM for CHX; their MICs) were incubated in 25% BHI at 37° C. At the time of 0, 1, 2, 4, 8, and 24 h, samples were taken and viable counts determined as follows: The samples were serially diluted (10^−1 to 10^−4) in sterile 10 mM PBS (pH 7.2) and 50 μl aliquots were plated onto TSBY agar. The plates were incubated anaerobically at 37° C. for 48 h, followed by enumerating the CFU. Killing curves were constructed by plotting the log10 CFU per milliliter versus time over 24 h. All assays were done in duplicate on at least two occasions.

[2] = tested on: C. glabrata 65C (azole-resistant clinical isolate); format: cell-based; conditions: clarified saliva
Text: as §1, §2

[3] = lowest concentration with 50% or more inhibition of biofilm formation
[4] = lowest concentration with 50% or more eradication of 1-day biofilm

| Molecule | MBIC50 (S. mutans GS-5 biofilm; GS-5 biofilm, 24 h) | MBEC50 (μM) ([1]; GS-5 1-day biofilm, 24 h) | MBEC50 (μg/ml) ([1]; GS-5 1-day biofilm, 24 h) | killing (Candida strains) | activity (killing) (Candida strains) | reduction of the viable counts of S. mutans (S. mutans GS-5) | percent loss of cell viability ([2]; PIC+) | percent loss of cell viability ([2]; PIC−) | MBIC50 (S. mutans GS-5 biofilm) | MBIC50 (S. mutans GS-5 biofilm; [3]) | MBEC50 (μg/ml) [1] | eradication of 1-day developed biofilm ([1]; at or more than MBEC50) | MBEC50 (μM) [1, 4] |
| --- | --- | --- | --- | --- | --- | --- | --- | --- | --- | --- | --- | --- | --- |
| AKRHHGYKRKFH [Hsn5 12-mer] | 25 µM | >50 µM | >78 µg/mL | – | – | – | – | – | – | – | – | – | – |
| CC(C)C[C@H](NC(=O)[C@H](CS)NC(=O)[C@H](CCCCN)NC(=O)[C@H](Cc1ccc(O)cc1)NC(=O)[C@H](CO)NC(=O)[C@H](CCCCN)NC(=O)[C@@H](N)CCCNC(=N)N)C(=O)N[C@@H](Cc1c[nH]cn1)C(=O)N[C@@H](CCCCN)C(=O)N[C@@H](CCCNC(=N)N)C(=O)N[C@@H](CS)C(=O)N[C@@H](CCCNC(=N)N)C(=O)O [MUC7 12-mer-L] (H-RKSYKCLHKRCR-OH; N-terminus and C-terminus assumed) | 12.5 µM | 50 µM | – | 44-80% | – | – | – | – | – | – | – | – | – |
| CC(C)C[C@@H](NC(=O)[C@@H](CS)NC(=O)[C@@H](CCCCN)NC(=O)[C@@H](Cc1ccc(O)cc1)NC(=O)[C@@H](CO)NC(=O)[C@@H](CCCCN)NC(=O)[C@H](N)CCCNC(=N)N)C(=O)N[C@H](Cc1c[nH]cn1)C(=O)N[C@H](CCCCN)C(=O)N[C@H](CCCNC(=N)N)C(=O)N[C@H](CS)C(=O)N[C@H](CCCNC(=N)N)C(=O)O [MUC7 12-mer-D] (H-[dR][dK][dS][dY][dK][dC][dL][dH][dK][dR][dC][dR]-OH; N-terminus and C-terminus assumed) | 6.25 µM | 25 µM | – | ~100% | 47-100% | – | – | – | – | – | – | – | – |
| GIGKFLHSAKKFGKAFVGEIMNS [Magainin-II] | – | – | – | – | – | 3 log10 | 99.80^± % | 0.00% | 62 µg/mL | 25 µM | >125 µg/mL | eradication was not observed | >50 µM |
| [H]/N=C(\N/C(=N/[H])NCCCCCCNC(=N)NC(=N)Nc1ccc(Cl)cc1)Nc1ccc(Cl)cc1 [Chlorhexidine, Chlorhexidine digluconate] | – | – | – | – | – | 1 log10 | – | – | 0.625 µg/mL | 1.25 µM | >10 µg/mL | – | >20 µM |
